According to paper PMC7041945, “Misfolded proteins bind and activate death receptor 5 to trigger apoptosis during unresolved endoplasmic reticulum stress” (eLife, 2020):

System: PARP / caspase 8 / caspase 3 in HCT116 cells
Experiment: Western blot of HCT116 lysates (PARP, caspase 8 and caspase 3 cleavage, DR5 level)
Assay type: cell-based, Homo sapiens
Conditions: HCT116, 24 hr, titration of construct
Method: Media and cells for each sample were collected by cell scraping into cold PBS followed by a subsequent wash with 1 ml of cold PBS. The cell pellet was then resuspended in cold lysis buffer (30 mM HEPES pH 7.2, 150 mM NaCl, 1% Triton X100, 1x Roche protease inhibitor) and lysed via needle shearing on ice. Samples were centrifuged at 1000xg for 5 min, and the supernatants were mixed with sample buffer to a final concentration of 1% SDS, 62.5 mM Tris-HCl pH 6.8, 10% glycerol, 0.1% bromophenol blue, 50 mM DTT. Samples were boiled at 95°C and loaded on SDS-PAGE gels (GenScript). Samples were subsequently transferred onto nitrocellulose membranes, blocked with Odyssey buffer (Licor) for 1 hr at RT, and probed with primary antibodies diluted 1:1000 (unless otherwise specified) in Licor Odyssey buffer supplemented with 0.1% Tween 20% at 4°C overnight.
Bound primary antibodies were probed by HRP-conjugated secondary antibodies (Amersham, Piscataway, NJ, 1:10000) using enhanced chemiluminescence (SuperSignal; Thermo Scientific, Waltham, MA) detected by standard film or through the ChemiDoc XRS+ Imaging System (Bio-Rad).

Sequence: FTWRYQPEGGRDAISIFHYA [MPZ-ecto peptide-eGFP, expressed construct: MPZ ectodomain replaced by the MPZ-ecto peptide, GFP-tagged]
- PARP cleavage and caspase activity: induced more PARP cleavage and caspase activity than similar or higher levels of the peptides containing Glu substitutions
- PARP cleavage and caspase activity (listed as WT MPZ-ecto): PARP cleavage and caspase activity measured in cell lysates were increased
